Source: article PMC6297231 (Nature Communications, 2018)

What was measured:
Test in all cases: cells
U266B1 = details: 6 h, read-out: AZD5991 6h EC50
Experimental: (§1) Cells were plated at 3000 cells/well in 384-well white plates in corresponding cell growth media. […] Caspase-3/7 activation was subsequently determined using a Caspase-Glo 3/7 Reagent (Promega) and viability was assayed using the CellTiter-Glo Reagent (Promega) as described in manufacturer’s instructions. Dose–response curves for caspase-3/7 activation and viability were plotted and analyzed (including EC50 and GI50 determination) using GraphPad Prism. Percentage of caspase activation was calculated against the maximum caspase activation value (100%) obtained with a proprietary cell kill control.

FaDu = details: Homo sapiens, 6 h, read-out: AZD5991 6h EC50
Experimental: as §1

H209 = details: Homo sapiens, NCI-H209, 6 h, read-out: AZD5991 6h EC50
Experimental: as §1

H1395 = details: Homo sapiens, NCI-H1395, 6 h, read-out: AZD5991 6h EC50
Experimental: as §1

Karpas422 = details: Homo sapiens, KARPAS-422, 6 h, read-out: AZD5991 6h EC50
Experimental: as §1

H358 = details: Homo sapiens, NCI-H358, 6 h, read-out: AZD5991 6h EC50
Experimental: as §1

TMD8 = details: Homo sapiens, TMD8, 6 h, read-out: AZD5991 6h EC50
Experimental: as §1

HCC1187 = details: Homo sapiens, HCC1187, 6 h, read-out: AZD5991 6h EC50
Experimental: as §1

SNU1197 = details: 6 h, read-out: AZD5991 6h EC50
Experimental: as §1

Sudhl4 = details: Homo sapiens, SU-DHL-4, 6 h, read-out: AZD5991 6h EC50
Experimental: as §1

Pfeiffer = details: Homo sapiens, 6 h, read-out: AZD5991 6h EC50
Experimental: as §1

NCI-H929 = details: Homo sapiens, NCI-H929, 6 h, read-out: AZD5991 6h EC50
Experimental: as §1

MONOMAC6 = details: Homo sapiens, MONO-MAC-6, 6 h, read-out: AZD5991 6h EC50
Experimental: as §1

LnCAP = details: Homo sapiens, 6 h, read-out: AZD5991 6h EC50
Experimental: as §1

OVCAR3 = details: Homo sapiens, OVCAR-3, 6 h, read-out: AZD5991 6h EC50
Experimental: as §1

H2171 = details: Homo sapiens, NCI-H2171, 6 h, read-out: AZD5991 6h EC50
Experimental: as §1

H2110 = details: NCI-H2110, 6 h, read-out: AZD5991 6h EC50
Experimental: as §1

OV90 = details: Homo sapiens, OV-90, 6 h, read-out: AZD5991 6h EC50
Experimental: as §1

SKMEL2 = details: Homo sapiens, SK-MEL-2, 6 h, read-out: AZD5991 6h EC50
Experimental: as §1

H345 = details: Homo sapiens, NCI-H345, 6 h, read-out: AZD5991 6h EC50
Experimental: as §1

Will2 = details: 6 h, read-out: AZD5991 6h EC50
Experimental: as §1

T47D = details: Homo sapiens, 6 h, read-out: AZD5991 6h EC50
Experimental: as §1

H196 = details: NCI-H196, 6 h, read-out: AZD5991 6h EC50
Experimental: as §1

LUDLU1 = details: LUDLU-1, 6 h, read-out: AZD5991 6h EC50
Experimental: as §1

KMS12BM = details: Homo sapiens, KMS-12-BM, 6 h, read-out: AZD5991 6h EC50
Experimental: as §1

WSUNHL = details: Homo sapiens, WSU-NHL, 6 h, read-out: AZD5991 6h EC50
Experimental: as §1

MINO = details: Homo sapiens, 6 h, read-out: AZD5991 6h EC50
Experimental: as §1

H1568 = details: NCI-H1568, 6 h, read-out: AZD5991 6h EC50
Experimental: as §1

Sudhl8 = details: Homo sapiens, SU-DHL-8, 6 h, read-out: AZD5991 6h EC50
Experimental: as §1

DMS79 = details: Homo sapiens, DMS-79, 6 h, read-out: AZD5991 6h EC50
Experimental: as §1

REC1 = details: Homo sapiens, Rec1, 6 h, read-out: AZD5991 6h EC50
Experimental: as §1

OCILY19 = details: Homo sapiens, OCI-LY19, 6 h, read-out: AZD5991 6h EC50
Experimental: as §1

KMS34 = details: KMS-34, 6 h, read-out: AZD5991 6h EC50
Experimental: as §1

OCILY3 = details: Homo sapiens, OCI-Ly3, 6 h, read-out: AZD5991 6h EC50
Experimental: as §1

KMS11 = details: Homo sapiens, KMS-11, 6 h, read-out: AZD5991 6h EC50
Experimental: as §1

VAL = details: 6 h, read-out: AZD5991 6h EC50
Experimental: as §1

Kasumi3 = details: Kasumi-3, 6 h, read-out: AZD5991 6h EC50
Experimental: as §1

SMILES: Cc1c2c(nn1C)CSCc1cc(n(C)n1)CSc1cc(c3ccccc3c1)OCCCc1c(C(=O)O)n(C)c3c-2c(Cl)ccc13 (atropisomer, axis not shown; (Ra)) [(Ra)-7]
- EC50 (U266B1): > 30000 nM
- EC50 (FaDu): 23300 nM
- EC50 (H209): > 30000 nM
- EC50 (H1395): 15400 nM
- EC50 (Karpas422): 530 nM
- EC50 (H358): > 30000 nM
- EC50 (TMD8): > 30000 nM
- EC50 (HCC1187): 235 nM
- EC50 (SNU1197): > 30000 nM
- EC50 (Sudhl4): 266 nM
- EC50 (Pfeiffer): > 30000 nM
- EC50 (NCI-H929): 60 nM
- EC50 (MONOMAC6): 268 nM
- EC50 (LnCAP): > 30000 nM
- EC50 (OVCAR3): > 30000 nM
- EC50 (H2171): 141 nM
- EC50 (H2110): 226 nM
- EC50 (OV90): > 30000 nM
- EC50 (SKMEL2): 9480 nM
- EC50 (H345): > 30000 nM
- EC50 (Will2): 193 nM
- EC50 (T47D): > 30000 nM
- EC50 (H196): > 30000 nM
- EC50 (LUDLU1): 1890 nM
- EC50 (KMS12BM): 56 nM
- EC50 (WSUNHL): 512 nM
- EC50 (MINO): 1290 nM
- EC50 (H1568): 300 nM
- EC50 (Sudhl8): 595 nM
- EC50 (DMS79): > 30000 nM
- EC50 (REC1): 2010 nM
- EC50 (OCILY19): 188 nM
- EC50 (KMS34): 240 nM
- EC50 (OCILY3): > 30000 nM
- EC50 (KMS11): 1570 nM
- EC50 (VAL): 172 nM
- EC50 (Kasumi3): 882 nM
